According to US20030109490A1, “Composite stimulating iNOS enzyme which induce immuno-reactant nitric oxide synthesis and process for preparing the same” (priority 2001, published 2003):

How the values were obtained:
Macrophage RAW264.7 = experiment: NO production by macrophage RAW264.7 (microplate assay, griess reagent); type: cell-based; conditions: TAXOL 10 μg/ml
Procedure: The production of NO was investigated as the following experiment
Macrophage RAW264.7(ATCC) was cultivated in RPMI-1640 medium (RPMI-1640 GibcoBRL 23400-021) 1.62%, sodium hydrogen carbonate 0.2%, penicillin and streptomycin 1%) supplemented with 10% fetal bovine serum (GibcoBRL 26140-079, FBS). Cell was incubated at 37° C., 5% CO2, and 95% of humidified air (CO2 incubator).
The production of NO was determined by employing microplate assay and the production of nitrate (NO3^−) which is an oxidized product of NO was also determined Macrophage RAW264.7(3×10^5 cells/ml) was grown in Dulbecco's modified eagle's medium supplemented with 100 U/ml penicillin, 100 μg/ml streptomycin, 10% FBS, 6 g/L HEPES, 3.7 g/L sodium hydrogen carbonate. Cell was stimulated against various control groups. Medium itself, rIFN-γ+the composite of the present invention, rIFN-γ+the composite of the present invention+LPS were stimulated to measure the production of nitrate (NO3^−) with time. After macrophage was cultured with INFγ 10 U/ml for 6 hours, the cell was incubated with each of the composite of the present invention (1 μg/ml), LPS(10 μg/ml), and the composite of the present invention (1 μg/ml)+LPS(10 μg/ml) to induce the production of nitrate (NO3^−).
The medium was centrifuged (1000 ppm, 10 minutes) and 100 μl of the culture supernatant was reacted with 100 μl of griess reagent (37.5 mM sulphanilic acid, 12.5 mM N-(1-naphthyl) ethylenediamine dihydrochloride, 6.5 mM hydrogen chloride) at room temperature for 10 minutes. Absorbance was measured at 540 nm using spectrophotometer. After correlation coefficient between concentration of NO3^− and absorbance was determined using nitric acid salts having concentration of 0 to 5 μM, the concentration of NO3^−-produced from macrophage RAW264.7 was calculated.

[1] = anti-oxidative activity calculated as UV blocking value; type: physicochemical; conditions: 528 nm
Procedure: The anti-oxidative activity of the composite of this invention was measured at the wavelength of 528 nm using an UV-visible spectrometer (Cary, Virian Co., USA).

Macrophage RAW 264.7 = experiment: TNF-α secretion of macrophage RAW 264.7 (ELISA); type: cell-based; conditions: rIFN-γ alone, no LPS, no composite, 28 hrs
Procedure: Macrophage RAW 264.7 (3×10^5 cells/well) was cultivated in RPMI-1640 medium supplemented with each of rIFN-γ, composite of this invention, and rIFN-γ+LPS, and rIFN-γ+composite of this invention for 28 hrs.
The secretion amount of TNF-α in the aforementioned cell was measured at a wavelength of 405 nm using ELISA method. Prior to analysis, several drops of 0.05% PBS (phosphate-buffered saline) was added to Tween 20 for its washing. All specimens for analysis was cultivated at 37° C. for 2 hrs. Recombinant murine TNF-α, so diluted, was used as a standard solution. An assay plate was exposed to (containing biotylate murine TNF-α, avidine peroxide, 30% H2O2), a substrate solution of ABTS (Azinobis(3-ethylbenzothiazoline-6-sulfonic acid).

Molecule: CC(=O)O[C@H]1C(=O)[C@@]2(C)[C@H]([C@H](OC(=O)c3ccccc3)[C@]3(O)C[C@H](OC(=O)[C@H](O)[C@@H](NC(=O)c4ccccc4)c4ccccc4)C(C)=C1C3(C)C)[C@]1(OC(C)=O)CO[C@@H]1C[C@@H]2O [TAXOL ®]
- NO (Macrophage RAW264.7; rIFN-γ added, no LPS, 0 h): <4.0 µM
- NO (Macrophage RAW264.7; rIFN-γ added, no LPS, 12 h): 30.56 ± 3.2 µM
- NO (Macrophage RAW264.7; rIFN-γ and LPS added, 24 h): 45.1 ± 1.2 µM

Molecule: O=C1O[C@H]([C@@H](O)CO)C(O)=C1O [Vitamin C]
- anti-oxidative activity (UV blocking value) ([1]; 0.1% solution): 21.23%
- anti-oxidative activity (UV blocking value) ([1]; 0.5% solution): 28.51%
- anti-oxidative activity (UV blocking value) ([1]; 1% solution): 47.83%
- anti-oxidative activity (UV blocking value) ([1]; 2% solution): 58.28%

B1: rIFN-γ: recombinant IFN-γ used to stimulate macrophage RAW264.7 (protein, UniProt P01580 23-155, looked up)
Interferon gamma: HGTVIESLESLNNYFNSSGIDVEEKSLFLDIWRNWQKDGDMKILQSQIISFYLRLFEVLKDNQAISNNISVIESHLITTFFSNSKAKKDAFMSIAKFEVNNPQVQRQAFNELIRVVHQLLPESSLRKRKRSRC
- TNF-a (Macrophage RAW 264.7): 0.76 ± 0.02 ng/mL
